From patent US10485814B2, “Nicotinamide riboside analogs and pharmaceutical compositions and uses thereof” (GlaxoSmithKline Intellectual Property (No. 2) Limited, priority 2014, dated 2019)
Entries after “also recorded” stand apart in the source; their conditions may differ.

What was measured:
HaCaT cells = experiment: H2O2-induced reactive oxygen species (ROS) in HaCaT cells (CellROX deep red); type: cell-based, human
Procedure: HaCaT cells were grown as described in example 23 and were seeded in 96-well plates (Nunc™ black with optical bottom, Thermo Fisher Scientific, Inc., Waltham, Mass.) with a density at 2×10^4 cells per well and 100 μl medium in each well, and grown overnight before treatments. Stock solutions of NRH and other test compounds were prepared and diluted to 2× of final treatment concentrations in DMEM medium in 96-well storage plate as indicated in the FIG. 11. HaCaT Cells were treated in triplicates by adding 100 μl of diluted solutions of test compounds (2×) to each well containing 100 μl medium already. Cells were incubated in the presence of test compounds for 3 hrs. At the end of 3 hr incubation, cells were washed once with 200 μl DPBS with Ca^++ and Mg^++ (Life Technologies) and then fed with 100 μl DMEM medium each well containing H2O2 at 250 μM (as a ROS (reactive oxygen species) inducer, Sigma). After 30 min incubation, cells were washed once with 200 μl DPBS with Ca^++ and Mg^++ and CellROX deep red reagent (2.5 mM stock solution, Life Technologies) was added to the medium to a final concentration of 5 μM. After 1 hr incubation at 37° C., 5% CO2, Cells were washed for 3 times with DPBS, fluorescence signal was read at Ex. 640 nm and Em. 665 nm in Biotek Synergy H4 microplate reader (BioTek, Winooski, Vt.). Untreated cells were served as controls (normalized to 1). All the treated samples were normalized to the untreated control.

[1] = Gravimetric Vapor Sorption (GVS); type: physicochemical; conditions: 90% RH, 25° C.
Procedure: Gravimetric Vapor Sorption (GVS): Samples were analyzed using a VTI corporation (now part of TA Instruments) SGA-100 with Cahn microbalance equipped with quartz sample and reference pans. Samples were dried in the SGA-100 under dry nitrogen for 5 hours at 25° C. followed by a moisture absorption step ramp from 5% relative humidity (RH) to 95% or 90% RH followed by a desorption step ramp back to 5% or 10% RH (all steps at 25° C.). The samples were held at each % RH step for 4 hours.

C57BL/6 DIO mice = experiment: NRH triacetate efficacy in DIO (Diet-Induced Obesity) mice; type: in vivo
Procedure: C57BL/6 DIO mice and lean controls were purchased from Taconic (Hudson, N.Y.). All mice were fed Purina 5001 chow ad libitum from weaning until 6 weeks of age, then DIO mice were fed a diet containing 60% fat, ad libitum. When the mice were 18 weeks old, dosing was begun. Mice were segregated into groups of 8, with group A receiving vehicle (1:1 (v:v) PEG400: water), group B receiving 100 mg/kg nicotinamide riboside hydride triacetate as a solution in vehicle, group C receiving 500 mg/kg nicotinamide riboside hydride triacetate as a solution in vehicle, and group D (chow-fed lean control mice) receiving vehicle. The mice were dosed once per day via oral gavage for six weeks. After three weeks of dosing, body weights, post-prandial blood glucose, and post-prandial blood insulin levels were measured using commercially available kits. After four weeks of dosing, fasted blood glucose and fasted blood insulin levels were measured. Nicotinamide riboside and NAD levels were measured after four weeks of dosing, using the same extraction and LCMS protocol as described in Example 21 with NAD giving an LC retention time=2.5 min, MS Q1 peak, m/z=664(M+H)+, Q3 peak, m/z=428 (M-Cl1H13N2O4). Statistical analysis was performed using one-way ANOVA, and Dunnett's post test.
Chow-fed mice were used as non-diabetic controls.

[2] = Plasma hydrolysis of nicotinamide riboside analogs to NR (incubation with rat plasma, LC/MS/MS); type: in vitro ADME; conditions: 10 mM, incubated 30 min at 37° C.
Procedure: Compounds were diluted with rat plasma to a concentration of 10 millimolar (mM). Samples were incubated for 30 min at 37° C., taking 50 microL aliquots for analysis at 0 and 30 min. The aliquots were loaded onto a deep 96 well plate, then 350 microL of 0.1% (v:v) formic acid in acetonitrile was added to each well. The plate was covered and sealed to prevent evaporation, then it was placed on an orbital plate shaker set to 800-900 rps for 5-10 minutes. Next, the plate was centrifuged at around 3000 rpm for 5 min to provide a clear supernatant. For LC/MS/MS analysis, 200 microL of supernatant from each well was transferred onto a clean plate, which was subsequently capped and placed into an autosampler.
(§1) LCMS Conditions. For each well, a 10 microL sample was injected via autosampler onto a Chromolithe Performance, RP-18e (100×4.6 mm) column, and eluted with a binary gradient. Solvent A=0.1% formic acid, 0.1% N,N-dibutyl-N-methylamine (DBME) in 2 mM aqueous ammonium acetate (1:1:1000 v:v:v). Solvent B=0.1% formic acid in acetonitrile (1:1000 v:v). The solvent gradient was as follows: 0-0.22 min, 95:5 A:B; […], 95:5 A:B to 30:70 A:B (linear gradient); 5.05-6.05 min, 30:70 A:B; 6.05-6.60 min, 30:70 A:B to 95:5 A:B (linear gradient); 6.60-7.15 min, 95:5 A:B; stop elution at 7.15 min. Nicotinamide riboside eluted at approximately 1.7 min. A triple-quadrupole mass spectrometer was employed for peak identification. The identity of the analyte was confirmed by MS observation of a Q1 peak at m/z=255 (M)^+, and a Q3 peak at m/z=123.1 (M-C5H8O4)^+.
The results are shown in FIG. 3, with the release of free nicotinamide riboside measured using by HPLC-MS at 0, 30, and 60 minute time points (columns 5, 6, and 7 of table shown in FIG. 3). For each of NR esters in Table 3, except nicotinamide riboside tribenzoate, nicotinamide riboside was detected at the 30 minute time point.

[3] = Plasma/blood nicotinamide riboside levels in orally dosed mice (LCMS); type: in vivo; conditions: oral gavage 500 mg/kg in PBS; for plasma nicotinamide riboside levels: both 2 h and 6 h post-dose
Procedure: Compounds were suspended in phospho-buffered saline (PBS) solution at 125 mg/mL. Eight mice were dosed via oral gavage with study compound at 500 mg/kg, (20 mg compound in 160 microL of PBS for a 40 g mouse). Four mice were euthanized via CO2 asphyxiation at 2 h post-dose, then the remaining four were euthanized at 6 h post-dose, and blood was collected immediately following euthanasia via cardiac puncture, orbital bleed, or tail vein nick. Approximately 600 microL of blood was collected from each mouse. The blood samples were diluted with 5 volumes of 70% (1% sulfosalicylic acid/1 microM DTE/10 microM CD-38 inhibitor)/30% (37% 10 mM aqueous ammonium bicarbonate/63% acetonitrile). The mixture was vortexed, then centrifuged at 3000 rpm for 10 min at 4° C. to give a transparent supernatant. A 10 microL portion of the supernatant was analyzed by LCMS, using the conditions below.
as §1, with “injected” for “injected via autosampler”, “A:B;” for “A:B; stop”, “elution was stopped” for “elution”, “(M)+,” for “(M)^+,”
In the bar graph in FIG. 5, compounds are shown on the x-axis, and comparative LCMS signal is shown on the y-axis; with each compound dosed in mice at 500 mg study compound per 1000 g mouse as a solution or suspension in phospho-buffered saline solution (PBS) (A=blank control (PBS), B=nicotinic acid riboside hydride ethyl ester triacetate, C=Nicotinamide riboside hydride triisobutyrate, D=Nicotinamide riboside hydride tri-n-butyrate, E=Nicotinamide riboside hydride tripropionate, F=nicotinamide riboside hydride tribenzoate). As shown, samples were taken 2 hours and 6 hours post dose. Also as shown, samples were kept cold (4° C.) or at room temperature (approximately 23° C.) before analysis.

[4] = 100 and 500 mg/kg once per day orally, after four weeks of dosing
[5] = oral gavage once per day 100 or 500 mg/kg, post-prandial, after three weeks of dosing

| SMILES | conversion to free nicotinamide riboside [2] | plasma nicotinamide riboside levels [3] | also measured |
| --- | --- | --- | --- |
| OO [Example H2O2] |  |  | level of ROS (HaCaT cells; 250 μM H2O2, 30 min, normalized to untreated control): ~6 fold |
| OCCc1ccc(O)c(O)c1 [Hydroxyterosol] |  |  | H2O2-induced ROS (HaCaT cells; 3 hr pre-incubation then 250 μM H2O2, Hydroxyterosol 0.005%, niacinamide 4.5 mM, NRH several concentrations): reduced H2O2-induced ROS |
| CC(=O)OC[C@H]1O[C@@H](N2C=CCC(C(N)=O)=C2)[C@H](OC(C)=O)[C@@H]1OC(C)=O [NRH triacetate, (2R,3R,4R,5R)-2-(acetoxymethyl)-5-(3-carbamoylpyridin-1(4H)-yl)tetrahydrofuran-3,4-diyl diacetate] | converted to free nicotinamide riboside to a significant degree |  | GVS weight gain from the dried state [1]: greater than 12%; blood NAD levels (C57BL/6 DIO mice; [4]): rose in a dose-dependent manner; also recorded: rise in a NRH-triacetate dose-dependent manner; blood nicotinamide riboside levels (C57BL/6 DIO mice; [4]): rose in a dose-dependent manner; also recorded: rise in a NRH-triacetate dose-dependent manner; blood glucose levels (C57BL/6 DIO mice; [5]): reduced; blood insulin levels (C57BL/6 DIO mice; [5]): reduced |
| NC(=O)C1=CN([C@@H]2O[C@H](COC(=O)c3ccccc3)[C@@H](OC(=O)c3ccccc3)[C@H]2OC(=O)c2ccccc2)C=CC1 [NRH tribenzoate, (2R,3R,4R,5R)-2-((benzoyloxy)methyl)-5-(3-carbamoylpyridin-1(4H)-yl)tetrahydrofuran-3,4-diyl dibenzoate] | not significantly converted to free nicotinamide riboside |  | nicotinamide riboside level ([3]; 2 h post-dose): only a very modest increase |
| CCCC(=O)OC[C@H]1O[C@@H](N2C=CCC(C(N)=O)=C2)[C@H](OC(=O)CCC)[C@@H]1OC(=O)CCC [NRH tributyrate, (2R,3R,4R,5R)-2-((butyryloxy)methyl)-5-(3-carbamoylpyridin-1(4H)-yl)tetrahydrofuran-3,4-diyl dibutyrate] | converted to free nicotinamide riboside to a significant degree | raised plasma nicotinamide riboside levels substantially |  |
| CC(C)C(=O)OC[C@H]1O[C@@H](N2C=CCC(C(N)=O)=C2)[C@H](OC(=O)C(C)C)[C@@H]1OC(=O)C(C)C [NRH triisobutyrate, (2R,3R,4R,5R)-2-(3-carbamoylpyridin-1(4H)-yl)-5-((isobutyryloxy)methyl)-tetrahydrofuran-3,4-diyl bis(2-methylpropanoate)] | converted to free nicotinamide riboside to a significant degree | raised plasma nicotinamide riboside levels substantially |  |
| CCC(=O)OC[C@H]1O[C@@H](N2C=CCC(C(N)=O)=C2)[C@H](OC(=O)CC)[C@@H]1OC(=O)CC [NRH tripropionate, (2R,3R,4R,5R)-2-(3-carbamoylpyridin-1(4H)-yl)-5 ((propionyloxy)methyl) tetrahydrofuran-3,4-diyl dipropionate] | converted to free nicotinamide riboside to a significant degree | raised plasma nicotinamide riboside levels substantially |  |
